Experiment [1] deals with heart rate. The experiment is described as follows: Continuous heart rate monitoring in 6 individuals, sustained effect. Type of experiment: in vivo, human. The conditions noted are these: baseline 0.0. As to the method:
In 6 individuals, heart rate experiments were performed to show the sustained effect of the combination of the five elements outlined in this invention. […] They sat quietly for […] to establish a baseline. They then on subsequent days ingested combination of the 5 elements described in this invention. The results are depicted in table 2 and FIG. 5. Where C is caffeine 150 mg, T is tyrosine 50 mg, CH is choline 200 mg, and GB is ginkgo biloba 120 mg.

Experiment [2] has as its system heart rate. The experiment is described as follows: Continuous heart rate recording, one individual, components on successive days. Type of experiment: in vivo, human. The conditions noted are these: baseline as reference, time point not given (5, 10, 15, 30 minutes recorded), caffeine 150 mg, tyrosine 50 mg, histadine 100 mg, Ginkgo Biloba 120 mg, choline 120 mg. As to the method: To test the components of example 14, a series of experiments were performed using a continuous heart rate recorder. In an individual on successive days, heart rate was recoded as RR intervals in msec. The individual sat quietly for 30 minutes as baseline. Then on day 1 the combination of caffeine, 150 mg, with tyrosine, 50 mg, histadine, 100 mg, Ginkgo Biloba, 120 mg, and choline 120 mg was given. […] A percent change was calculated with the baseline as reference. On Day 2 caffeine alone was ingested using the same protocol. […] On day 5, ginkgo biloba was ingested.

Experiment [3] concerns vasodilation of the skin (skin temperature). Nature of the experiment: Skin temperature probe test of skin vasodilation. Type of experiment: in vivo, human. The conditions noted are these: single ingredient given alone. The text has this:
A person ingested the preparation designed to increase nitric oxide and acetylcholine in order to induce vasodilation (example 3). The preparation included choline, arginine, hawthorn berry, cocoa, dextrose, and cinnamon. A temperature probe designed to assess skin temperature measured vasodilation of the skin. The baseline skin temperature was 99 degrees Fahrenheit. Within fifteen minutes after ingestion of the capsules, the skin temperature increased to 101.3 degrees Fahrenheit and remained elevated for three hours. The next day arginine alone was given with no effect on skin temperature. The following day, choline alone was given with no effect on skin temperature. The preparation was given for two weeks when skin temperature was again measured. The skin temperature increased by two degrees and remained elevated for 60 minutes (FIG. 3).

Experiment [4] concerns appetite; heart rate and heart rate variability. Nature of the experiment: Shell's earlier studies of attenuation of precursor formulations. The conditions noted are these: Shell's studies dating to 1987. Type of experiment: in vivo.

`Cn1c(=O)c2c(ncn2C)n(C)c1=O` [Caffeine]: the “heart rate, 5 min” value in experiment [1] (5 min after ingestion) is listed as 3.0. Further, in experiment [1] (15 min after ingestion), the “heart rate, 15 min” value came to 1.3. Moreover, the “heart rate, 30 min” value in experiment [1] (30 min after ingestion) is 0.0. Besides, in experiment [2], the “percent change in heart rate” value worked out at 3%.
For `C[N+](C)(C)CCO` [Choline], the “percent change in heart rate” value in experiment [2] is recorded as −4%. Besides, the “effect on skin temperature” value in experiment [3] is listed as “no effect”.
As to `N[C@@H](Cc1c[nH]cn1)C(=O)O` [Histadine], the “percent change in heart rate” value in experiment [2] is 0.2%.
As for `N[C@@H](Cc1ccc(O)cc1)C(=O)O` [Tyrosine], the “percent change in heart rate” value in experiment [2] worked out at 1%. Further, the “time until appetite suppression is lost” value in experiment [4] is given as “approximately 7 days”.
For the compound `N=C(N)NCCC[C@H](N)C(=O)O` [arginine], in experiment [3], the “effect on skin temperature” value is on record as “no effect”.

The values above are taken from patent US7585523B2, “Composition and method to augment and sustain neurotransmitter production” (Targeted Medical Pharma, priority 2002, dated 2009).
